# Assay results: patent US20240197699A1, “BE[…] FOR USE IN THERAPY” (MOLECULAR RESEARCH PHARMACT S.R.L., priority 2021, published 2024)
# Assays:
# [1] = biological target: T1, AdipoR1 (Mus musculus, UniProt Q91VH1); assay: AMPK activation by the compound in HT22 cells under AdipoR1 knock-down (siAdipoR1); type: cell-based; details: HT22 cells transfected with siAdipoR1, compound 25 nM, 30 minutes
# T1 construct: siAdipoR1, siAdipoR2 were prepared in DMEM to break down the expression of AdipoR1 and AdipoR2, respectively; endogenous in cells; host or cells: HT22 mouse neuronal cells
# T1 sequence (Q91VH1 1-375): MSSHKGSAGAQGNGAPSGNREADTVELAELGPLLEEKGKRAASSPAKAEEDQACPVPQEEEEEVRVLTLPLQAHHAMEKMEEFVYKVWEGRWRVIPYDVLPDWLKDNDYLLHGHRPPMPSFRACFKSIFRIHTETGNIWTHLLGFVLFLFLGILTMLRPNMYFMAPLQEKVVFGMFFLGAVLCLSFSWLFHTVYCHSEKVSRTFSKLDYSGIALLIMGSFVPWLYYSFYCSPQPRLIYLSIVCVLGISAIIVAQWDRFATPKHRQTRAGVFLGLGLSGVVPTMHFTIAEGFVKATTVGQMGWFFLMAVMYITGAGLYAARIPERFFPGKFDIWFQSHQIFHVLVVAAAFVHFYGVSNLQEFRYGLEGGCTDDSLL
# Description: A rabbit adiponectin anti-receptor 1 polyclonal antibody (AdipoR1)(Abcam, Cambridge, MA, USA), a rabbit adiponectin anti-receptor 2 polyclonal antibody (AdipoR2) (Boster Biological Technology, USA), an anti-phospho-AMPK (pAMPK) rabbit polyclonal antibody (Cell Signaling Technology, Ltd.), an anti-AMPK rabbit polyclonal antibody (Cell Signaling Technology, Ltd.) and an HRP conjugated mouse monoclonal anti-§ (beta)-actin antibody (Cell Signaling Technology, Ltd.) were used as primary antibodies after being suitably diluted. An HRP conjugated goat anti-rabbit IgG antibody (Dako, Glostrup, Denmark) was used as secondary antibody.
# (§1) Under conditions of 5% CO2 at 37° C., mouse neuronal cells (HT22) are maintained and expanded in a Dulbecco-modified high-glucose Eagle medium (DMEM, GIBCO, Invitrogen, Life Technologies Hong Kong Ltd.), containing 10% fetal bovine serum (FBS, HiClone, Cytiva Co., Ltd.) and 1% v/v penicillin/streptomycin (Life Technologies Hong Kong Ltd.).
# SiRNA scramble (non-targeting RNA), siAdipoR1 and siAdipoR2 were purchased from Santa Cruz Biotechnology. siAdipoR1, siAdipoR2 were prepared in DMEM to break down the expression of AdipoR1 and AdipoR2, respectively. […]
# The extraction of each soluble fraction and the quantification of the proteins in each soluble fraction by western blot analysis were performed according to procedures similar to section 1.4 of Experiment 1.
# [2] = system: NSC-34 cells; assay: Viability of NSC-34 neuronal cells under high glucose (hyperglycemia-induced apoptosis); type: cell-based; details: pre-treatment 25 nM, then 100 mM glucose
# Description: A high glucose level is the cause of neuronal apoptosis leading to diabetic neuropathy. To examine whether SS-SRGR-(+7) can protect neurons from the hyperglycemic condition, neuronal cells in different glucose concentrations (0, 25, 50, 100 mM) were grown. […] NSC-34 neurons were then pre-treated with or without SS-SRGR-(+7)(25 nM) prior to incubation with 100 mM glucose.
# [3] = system: AMPK, the downstream intracellular mediator of adiponectin receptors; assay: Concentration-dependent activation of AMPK in HT22 neuronal cells (western blot, pAMPK/AMPK); type: cell-based, mouse; details: HT22 cells, 0, 10, 25 nM, 30 minutes, serum-free DMEM
# Description: A rabbit anti-phospho-AMPK polyclonal antibody (pAMPK) (Cell Signaling Technology, Ltd.), a rabbit anti-AMPK polyclonal antibody (Cell Signaling Technology, Ltd.) and an HRP conjugated mouse monoclonal anti-β-actin antibody (Cell Signaling Technology, Ltd.) were used as primary antibodies after being suitably diluted. An HRP-labeled rabbit IgG goat antibody (Dako, Glostrup, Denmark) was used as a secondary antibody.
# as §1, with “were” for “are”
# The compound was dissolved in DMSO (Sigmaldrich Co Ltd.) at a concentration of 10 mM as a stock. […]
# Each cell sample was homogenized in ice-cold lysis buffer (Cell Signaling Technology, USA), containing a cocktail of protease inhibitors, by ultrasonic homogenizer before being centrifuged at 12,000×g, 4° C. for 15 min. […] The protein concentration of each fraction was measured using the BioRad Protein Assay reagent (Bio-Rad Laboratories, Inc.). […] The densitometric analysis of the bands detected by the chemiluminescent reaction was quantified by the Image J software (NIH: National Institutes of Health). […]
smiles,measurement,setting,value
"CC1C2Cc3ccc(O)cc3C1(C)CCN2CCC(C(=O)N(C)C)(c1ccccc1)c1ccccc1 (stereo not drawn) [SS-SRGR-(+7), 4-(8-hydroxy-6,11-dimethyl-1,4,5,6-tetrahydro-2,6-methane-3-benzazocin-3(2H)-yl)-N,N-dimethyl-2,2-diphenylbutanamide]",SS-SRGR-(+7)-induced AMPK activation under Adipo-R1 knock-down compared to siCtrl-transfected HT22 cells,[1],significantly reduced
same,Cell viability of pretreated NSC34 cells versus vehicle-pretreated NSC34,[2],significantly higher
same,"amounts of pAMPK proteins (pAMPK/AMPK ratio, densitometry)",[3],increase significantly in a concentration-dependent manner
